How the values were obtained:
Assay type in all cases: in vivo
male (Swiss albino) mice [1] = test: Cellular immune response (delayed hypersensitivity), ovalbumin mouse paw edema; conditions: CY (+) mice, cyclophosphamide 150 mg/kg i.p., composition 200 100 mg/kg/day, levamisole 25 mg/kg oral
Method: (§1) Test subjects: the experiment was performed on healthy adult male (Swiss albino) mice, 5-6 weeks old, weighing 25±2 grams. They were nurtured to stabilize for 1 week before conducting the experiment at room temperature (27° C.-28° C.). They were fed with synthetic pellets for mice, and the drinking water was tap water.
(§2) Test sample: the composition 200 which is obtained from the example 1, and the control sample used distilled water.
(§3) Male (Swiss albino) mice were immunodeficient by intraperitoneally administering a single dose of cyclophosphamide (150 mg/kg body weight) on the first day and then orally administering the test samples continuously for 5 days.
(§4) The experiment for immune-enhancing of the composition 200 by arrangement total of 60 male mice was used for experimental (23-25 g) divided into six treatments listed in Table 5 below.
(§5) [formula] • wherein Pcq is the weight of the organ; Pct is the body weight of the mouse at the time of survey. 3) Leukocyte Count and Percentage of Leukocyte Types; • Collected tail vein blood from mice on the 5th day after CY injection. […] On the 14th day, sensitization was induced by tail vein injection with ovalbumin at a dose of 0.5 mg/kg mouse body weight. […] Measure the volume of the mouse paw at 4 hours (V1) and 24 hours (V2) after the second ovalbumin injection. The left paw that was not injected was used as the reference (Vo). […]

male (Swiss albino) mice [2] = test: Leukocyte count and percentage of leukocyte types; conditions: CY (+) mice, 5th day after CY injection 150 mg/kg i.p.; composition 200 100 mg/kg/day, levamisole 25 mg/kg oral
Method: as §1, §2, §3, §4
as §5, with “(Vo). Calculate the percentage of mouse paw edema using the formula:” for “(Vo).”

male (Swiss albino) mice [3] = test: Relative weight of organs: liver, spleen, and thymus; conditions: CY (+) mice, 10th day after cyclophosphamide 150 mg/kg i.p.; composition 200 100 mg/kg/day, levamisole 25 mg/kg oral
Method: as §1, §2, §3, §4
The relative weights of the organs were calculated using the following formula:
as §5, with “(Vo). Calculate the percentage of mouse paw edema using the formula:” for “(Vo).”

Compound: c1ccc([C@H]2CN3CCSC3=N2)cc1 [levamisole]
- % V4h, percentage of the mouse paw edema after 4 hours (male (Swiss albino) mice [1]; 4 hours after second ovalbumin injection): 81.27 ± 7.52%
- % V24 h, percentage of the mouse paw edema after 24 hours (male (Swiss albino) mice [1]; 24 hours after second ovalbumin injection): 38.28 ± 7.12%
- % Lymphocyte (male (Swiss albino) mice [2]): 59.56 ± 4.42%
- % Monocyte (male (Swiss albino) mice [2]): 14.06 ± 3.64%
- % Neutrophil (male (Swiss albino) mice [2]): 10.81 ± 1.18%
- relative weight of liver (male (Swiss albino) mice [3]): 5.074 ± 0.189 g %
- relative weight of spleen (male (Swiss albino) mice [3]): 0.343 ± 0.031 g %
- relative weight of thymus (male (Swiss albino) mice [3]): 0.073 ± 0.013 g %

From US12403168B1, “Method for producing a plant-based extract composition having the effect of enhancing nutrition and immunity” (priority 2024, dated 2025)
